{"source": "patent US5552267A", "about": "“Solution for prolonged organ preservation” (priority 1994, dated 1996)", "key": {"[1]": {"test_system": "neutrophil infiltration of cardiac graft", "assay": "graft myeloperoxidase activity/histology, nitric oxide series", "type": "in vivo, rat", "conditions": "12 h; NTG 0.1 mg/ml in LR", "experimental": "Ten minutes following restoration of blood flow, transplanted hearts were excised and the aortic root was flushed for 5 minutes (rate of 2 ml/minute controlled by roller pump) with normal saline (Baxter, Edison, N.J.), the atria and great vessels were removed, and intracavitary blood was evacuated. Remaining ventricular pieces were weighed, homogenized, and myeloperoxidase activity measured as described^10. For histologic study, cardiac graft samples were fixed in an ascending series of aldehydes, embedded, sectioned, and stained with hematoxylin and eosin."}, "[2]": {"test_system": "graft tissue oxidant stress", "assay": "thiobarbituric acid reactive substances (TBARs)", "type": "in vivo, rat", "conditions": "NTG in EC, 6 h", "experimental": "Thirty minutes following ligation of the native right pulmonary artery, or at the time of recipient death, transplanted lungs were removed, rinsed briskly in physiologic saline, and snap frozen in liquid nitrogen until the time of myeloperoxidase or TBARs assay.\nThe assay was performed by homogenizing tissue in 1.15% KCl (10 ml/gm of tissue). To 0.2 ml of 10% (w/v) tissue homogenate, the following was added; 0.2 mL of 8.1% sodium dodecyl sulfate (SDS; Sigma), 1.5 mL of 20% acetic acid solution (pH 3.5), 1.5 mL of 0.8% aqueous solution of thiobarbituric acid (Sigma), and 0.6 mL of double distilled water. This mixture was heated to 95° C. for 60 minutes followed by rapid cooling to room temperature. An organic extraction was performed by adding 1.0 mL of double distilled water and 5.0 mL of n-butanol:pyridine (15:1, v/v), vortexing, and then centrifuging at 4000 rpm for 10 minutes. The water-immiscible (organic) layer was recovered for measurement of absorbance at 532 nm. Experiments were performed using 1,1,3,3,-tetramethoxypropane as a standard, with the level of lipid peroxides expressed as nmol of malondialdehyde (MDA)/mg protein. Protein content was determined by the method of Lowry et. al^38."}, "cGMP": {"test_system": "cGMP", "assay": "tissue cGMP levels (radioimmunoassay, unpublished)", "conditions": "NTG in preservation solution"}, "[3]": {"test_system": "cGMP-dependent protein kinase", "conditions": "vs cAMP-dependent protein kinase; cited from earlier work"}, "[4]": {"test_system": "cGMP-regulated phosphodiesterases", "conditions": "cited from earlier work"}}, "data": [{"smiles": "O=[N+]([O-])OCC(CO[N+](=O)[O-])O[N+](=O)[O-]", "note": "[NTG, nitroglycerin]", "values": [{"measurement": "neutrophil infiltration", "setting": "[1]", "value": "marked decrease in neutrophil infiltration"}, {"measurement": "graft oxidant stress, TBARs", "setting": "[2]", "value": "reduced graft oxidant stress"}, {"measurement": "tissue cGMP levels", "setting": "cGMP", "value": "augments tissue cGMP levels"}]}, {"smiles": "Nc1nc2c(nc(Br)n2[C@@H]2O[C@@H]3COP(=O)(O)O[C@H]3[C@H]2O)c(=O)[nH]1", "note": "[8-Br-cGMP, 8-bromoguanosine-3'5' cyclic monophosphate]", "values": [{"measurement": "times more potent at stimulating cGMP- than cAMP-dependent protein kinase", "setting": "[3]", "value": 500, "unit": "times"}, {"measurement": "interaction with allosteric binding sites", "setting": "[4]", "value": "does not interact with the allosteric binding sites"}]}]}
